According to patent US20050137177A1, “Ester combination local anesthetic” (priority 2003, published 2005):

Assays:
sciatic nerve [1] = assay: Rat sciatic nerve block, onset and offset (withdrawal to pinch, proprioception, motor strength); assay type: in vivo; conditions: for duration of sensory block (in words) / onset of sensory block (in words) / duration of full sensory block (until it started to decay): 2% 2-chloroprocaine; for duration of sensory block (in words) / onset of sensory block (in words): 0.22% or 0.5% tetracaine
Method: The onset and offset of sciatic nerve block from lidocaine, bupivacaine, tetracaine, and 2-chloroprocaine were examined in studies conducted in rats. Three different modalities were tested: (1) pain (e.g., withdrawal to pinch); (2) proprioception (e.g., the ability to place the paw squarely on the table); and (3) motor strength (e.g., the downward pressure the paw can exert on a scale). In each case, the same volume of local anesthetic agent was tested. The modality of interest was withdrawal to pinch. Each local anesthetic was tested on 5 rats of nearly identical size and age.

[2] = between 1990 and 1997; Medline database; cited from earlier work
rat peroneal nerve = conditions: in vivo; for peroneal total axonal counts (± SEM): 5 days
From the text: Sections of rat peroneal nerve were taken for evaluation with light microscopy five days post injection with local anesthetic(s). Specifically, each nerve was sectioned and total axonal counts were taken to assess any axonal loss. Five nerves were examined for each treatment condition. The peroneal axonal counts five days after control (saline), bupivacaine, and 2.3% 2-chloroprocaine/0.17% tetracaine injections were 2063±30 (SEM), 1959±81, and 1993±45, respectively.

sciatic nerve [3] = conditions: rat, in vivo
From the text: Sections were also taken across the sciatic nerve five days after injection with local anesthetic(s) and examined for gross pathological injury.

[4] = 0.17% tetracaine + 2.3% 2-chloroprocaine
[5] = 2.0% lidocaine, 0.17% tetracaine + 2.3% 2-chloroprocaine
[6] = withdrawal to pinch, 2.0% lidocaine, 0.5% bupivacaine, 0.17% tetracaine + 2.3% 2-chloroprocaine

What does the source list for `CCN(CC)CCOC(=O)c1ccc(N)cc1Cl` [2-chloroprocaine]?
duration of sensory block (in words) (sciatic nerve [1]; [4]): substantially shorter without co-administration of tetracaine; onset of sensory block (in words) (sciatic nerve [1]; [5]): slower than with co-administration of tetracaine; duration of full sensory block (until it started to decay) (sciatic nerve [1]; [6]): about 30 minutes

For `CCCCN1CCCCC1C(=O)Nc1c(C)cccc1C` (stereo not drawn) [bupivacaine], which “deaths (e.g., heart arrest, myocardial infarction, accidental overdose)” value [2] is on record?
The value was 102 deaths.

What about the “total axonal counts compared with saline controls (in words)” value (rat peroneal nerve) of the same compound?
Its value is “no significant difference”.

And the “peroneal total axonal counts (± SEM)” value (rat peroneal nerve)?
The value was 1959±81.

What about the “light microscopic appearance of sciatic nerve at site of injection” value (sciatic nerve [3]) of the same compound?
The value was “indistinguishable from saline controls”.

And the “onset of sensory block relative to 2.0% lidocaine” value (sciatic nerve [1]; 0.5% bupivacaine vs 2.0% lidocaine)?
The value was 4 times slower.

And the “time to achieve full sensory block (onset)” value (sciatic nerve [1]; withdrawal to pinch, 0.5% bupivacaine, 0.17% tetracaine + 2.3% 2-chloroprocaine, same volume, 5 rats)?
The value was 8 min.

What about the “duration of full sensory block (until it started to decay)” value (sciatic nerve [1]; [6]) of the same compound?
The value was 60 min.

Which results are given for `CCN(CC)CC(=O)Nc1c(C)cccc1C` [lidocaine]?
total axonal counts compared with saline controls (in words) (rat peroneal nerve): significantly reduced; peroneal total axonal counts (± SEM) (rat peroneal nerve): 1602±167; light microscopic appearance of sciatic nerve at site of injection (sciatic nerve [3]): marked edema and neural damage; onset of sensory block (in words) (sciatic nerve [1]; [5]): nearly immediate; onset of block at the first time point tested (sciatic nerve [1]; 2.0% lidocaine, 2 minutes after injection, sensory block, 5 rats): 100%; duration of full sensory block (until it started to decay) (sciatic nerve [1]; [6]): about 45 minutes

Which results are given for `CCCCNc1ccc(C(=O)OCCN(C)C)cc1` [tetracaine]?
sensory block achieved (sciatic nerve [1]; 0.22% tetracaine): less than 60%; sensory block achieved (sciatic nerve [1]; 0.5% tetracaine): less than 60%; duration of sensory block (in words) (sciatic nerve [1]; [4]): dissipated rapidly; onset of sensory block (in words) (sciatic nerve [1]; [5]): slow onset; motor blockade (sciatic nerve [1]; tetracaine studies, all animals, data not shown): complete, prolonged motor blockade
